Results reported in patent US20220289698A1, “INHIBITORS OF HUMAN ATGL” (Karl-Franzens-Universität Graz, priority 2019, published 2022).
Where two headings read alike, the source gives them in different places.

Experiments:
[1] = molecular target: T1, human ATGL (Homo sapiens, UniProt Q96AD5); assay: TG hydrolase activity, Expi cell lysates expressing human ATGL + CGI-58, radiolabelled triolein; format: biochemical
T1 construct: made in house; host or cells: Expi cells (lysate, not purified)
T1 sequence (Q96AD5 1-504): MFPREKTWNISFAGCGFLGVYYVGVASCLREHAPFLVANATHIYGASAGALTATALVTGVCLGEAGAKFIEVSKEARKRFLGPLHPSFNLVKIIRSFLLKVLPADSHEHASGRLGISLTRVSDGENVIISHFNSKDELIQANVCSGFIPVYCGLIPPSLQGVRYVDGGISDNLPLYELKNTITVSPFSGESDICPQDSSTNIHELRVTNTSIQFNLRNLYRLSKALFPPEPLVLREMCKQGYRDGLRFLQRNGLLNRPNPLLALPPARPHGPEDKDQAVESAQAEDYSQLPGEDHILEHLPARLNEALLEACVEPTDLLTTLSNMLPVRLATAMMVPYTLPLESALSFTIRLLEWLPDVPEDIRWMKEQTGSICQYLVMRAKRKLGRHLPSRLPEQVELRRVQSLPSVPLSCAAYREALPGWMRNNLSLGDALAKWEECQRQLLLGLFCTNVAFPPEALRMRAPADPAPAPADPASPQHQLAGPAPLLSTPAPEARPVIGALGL
Procedure: (§1) Triglyceride (TG) hydrolase activity was measured as previously described (Schweiger M et al., Methods in Enzymology, 2014, 538:171-93). In brief, TG hydrolase activity was determined by adding recombinant purified CGI-58 to Expi cell lysates expressing human ATGL. For determination of cross-species reactivity Expi lysates expressing ATGL from different model organisms (e.g. mouse, rat, rhesus monkey, goat, etc.) were used. Samples were incubated with DMSO (carrier) or increasing concentrations of ATGL inhibitors dissolved in DMSO. TG substrate was prepared by emulsifying 330 μM radiolabelled triolein (40,000 c.p.m./nmol) and 45 μM phosphatidylcholine/phosphatidylinositol (3:1) in 100 mM potassium phosphate buffer (pH 7.0) by sonication and adjusting to 5% essentially FA-free BSA. TG substrate was added to the reaction mixture and incubated for 1 h at 37° C. in the water bath. The reaction was terminated by adding methanol/chloroform/heptane (10:9:7) and 0.1 M potassium carbonate with 0.1 M boric acid (pH 10.5). After centrifugation at 800 g for 15 min the radioactivity in the upper phase was determined by liquid scintillation counting and the rate of FA hydrolysis was calculated. IC50 values were determined as inhibitor concentration capable of inhibiting TG hydrolase activity by 50% as compared to DMSO control. Samples were measured as duplicates. The determination of IC50 values for human ATGL is illustrated in FIG. 1.

[2] = molecular target: T2, murine ATGL (Mus musculus, UniProt Q8BJ56); assay: TG hydrolase activity, Expi lysates expressing mouse ATGL + CGI-58, radiolabelled triolein; format: biochemical
T2 construct: made in house; host or cells: Expi cells (lysate)
T2 sequence (Q8BJ56 1-486): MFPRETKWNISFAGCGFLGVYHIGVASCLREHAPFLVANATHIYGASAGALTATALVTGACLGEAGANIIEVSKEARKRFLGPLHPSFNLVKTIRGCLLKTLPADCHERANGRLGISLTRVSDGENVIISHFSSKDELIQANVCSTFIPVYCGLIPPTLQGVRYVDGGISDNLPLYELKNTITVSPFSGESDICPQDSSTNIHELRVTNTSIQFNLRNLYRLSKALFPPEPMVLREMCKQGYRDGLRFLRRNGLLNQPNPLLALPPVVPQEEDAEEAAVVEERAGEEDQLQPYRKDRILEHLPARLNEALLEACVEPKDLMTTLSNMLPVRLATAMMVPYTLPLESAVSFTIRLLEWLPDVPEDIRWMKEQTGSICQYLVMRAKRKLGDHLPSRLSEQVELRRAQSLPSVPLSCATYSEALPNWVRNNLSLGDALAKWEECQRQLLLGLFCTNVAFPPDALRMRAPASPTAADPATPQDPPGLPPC
Procedure: as §1
Lysates from Expi cells overexpressing ATGL from mouse (Mus musculus) were incubated with recombinant purified ATGL co-activator CGI-58 and ATGL inhibitors at 50 μM. Subsequently, substrate containing radiolabeled triolein was added and liberated FA were extracted and quantified by liquid scintillation. Inhibitors were dissolved in DMSO which was used as control. Samples were measured in triplicates.

[3] = values of text and figure legend, read-out: IC50 on human ATGL (hATGL)
[4] = 50 μM compound, Example 237, read-out: Inhibition of murine ATGL at 50 μM − mean [%]
[5] = Example 237, read-out: Inhibition of human ATGL − IC50
[6] = 50 μM, Example 238, read-out: % Inhibition of murine ATGL at 50 μM
[7] = Example 238, read-out: Inhibition of human ATGL IC50

| SMILES | IC50 [1, 5] [µM] | also measured |
| --- | --- | --- |
| CCOc1ccc(-c2ccc(C)c(C(=O)OC(C)C)n2)cc1 [NG-469, reference compound] | – | IC50 [1, 3]: > 200 µM |
| CCOc1ccc(-c2nc(C(=O)OC(C)(C)CC)cs2)cc1 [Example 118, tert-Pentyl 2-(4-ethoxyphenyl)thiazole-4-carboxylate] | 25 | inhibition at 50 µM [2, 4]: 0% |
| CCOC(=O)c1csc(-c2ccc(OCC(F)(F)F)cc2)n1 [Example 108, Ethyl 2-(4-(2,2,2-trifluoroethoxy)phenyl)thiazole-4-carboxylate] | 5 | inhibition at 50 µM [2, 4]: 8% |
| CCOc1ccc(-c2nc(C(=O)OCc3cncs3)cs2)cc1 [Example 217, Thiazol-5-ylmethyl-2-(4-ethoxyphenyl)thiazole-4-carboxylate] | – | inhibition at 50 µM [2, 6]: 77%; IC50 [1, 7]: 20 µM |
| CCOc1ccc(-c2nc(C(=O)OCc3ccncc3)cs2)cc1 [Example 159, Pyridin-4-ylmethyl 2-(4-ethoxyphenyl)thiazole-4-carboxylate] | 20 | – |
| CCOc1ccc(-c2nc(C(=O)OCc3ccccc3)cs2)cc1 [Example 158, Benzyl 2-(4-ethoxyphenyl)thiazole-4-carboxylate] | 15 | – |
| CCOc1ccc(-c2nc(C(=O)OCc3cocn3)cs2)cc1 [Example 218, Oxazol-4-ylmethyl 2-(4-ethoxyphenyl)thiazole-4-carboxylate] | – | IC50 [1, 7]: 20 µM |
| CCOC(=O)c1csc(-c2ccc(SC(C)C)cc2)n1 [Example 100] | 20 | inhibition at 50 µM [2, 4]: 0% |
| CC(C)OC(=O)c1cccc(-c2ccccc2)n1 [Example 24] | 25 | inhibition at 50 µM [2, 4]: 38% |
| CCOC(=O)c1cccc(-c2ccc(COC(C)=O)cc2)n1 [Example 93] | 20 | – |
| CCOc1ccc(-c2nc(C(=O)OC(CF)CF)cs2)cc1 [Example 135, 1,3-Difluoropropan-2-yl 2-(4-ethoxyphenyl)thiazole-4-carboxylate] | 3 | inhibition at 50 µM [2, 4]: 5.8% |
| CCOc1ccc(-c2nc(C(=O)OC(C)C)cs2)cc1 [Example 123, Isopropyl 2-(4-ethoxyphenyl) thiazole-4-carboxylate] | 3 | inhibition at 50 µM [2, 4]: 10.6%; inhibition at 50 µM ([2]; 50 μM, overview table, read-out: mouse ATGL inhibition [% inhibition at 50 μM]): 20% |
| CCOc1ccc(-c2nc(C(=O)OC3CCCCC3)cs2)cc1 [Example 133, Cyclohexyl 2-(4-ethoxyphenyl)thiazole-4-carboxylate] | 25 | inhibition at 50 µM [2, 4]: 0% |
| CCOC(=O)c1nc(-c2ccc(OCC)cc2)sc1I [Example 165, Ethyl 2-(4-ethoxyphenyl)-5-iodothiazole-4-carboxylate] | 5 | – |
| CCCOc1ccc(-c2nc(C(=O)OCc3ccsc3)cs2)cc1 [Example 232, Thiophen-3-ylmethyl 2-(4-propoxyphenyl)thiazole-4-carboxylate] | – | IC50 [1, 7]: 12 µM |
| CC(C)OC(=O)c1cccc(-c2ccc(OC(C)C)cc2)n1 [Example 95] | 3 | inhibition at 50 µM [2, 4]: 13.1% |
| CCC/C=C/COC(=O)c1csc(-c2ccc(OCC)cc2)n1 [Example 155, (E)-Hex-2-en-1-yl 2-(4-ethoxyphenyl)thiazole-4-carboxylate] | 15 | – |
| CCOC(=O)c1cc(-c2ccc(OCC)cc2)ns1 [AMU-27, reference compound] | – | IC50 [1, 3]: ≥ 200 µM |
| CCCCc1ccc(-c2cc(OC)cc(C(=O)OC(C)C)n2)cc1 [Example 57] | 2 | – |

| SMILES | IC50 [1, 5] [µM] | also measured |
| --- | --- | --- |
| CCOC(=O)c1nc(-c2ccc(OCC)cc2)sc1C(C)C [Example 227, Ethyl 2-(4-ethoxyphenyl)-5-isopropylthiazole-4-carboxylate] | – | inhibition at 50 µM [2, 6]: 44% |
| CCOc1ccc(-c2nc(C(=O)OCc3cccnc3)cs2)cc1 [Example 160, Pyridin-3-ylmethyl 2-(4-ethoxyphenyl)thiazole-4-carboxylate] | 15 | – |
| CN(C)C(=O)Nc1cccc(-c2ccc(N(C)C)cc2)c1 [atglistatin, reference compound] | – | IC50 [1, 3]: > 200 µM |
| CCOc1ccc(-c2nc(C(=O)OC(C)c3nccs3)cs2)cc1 (stereo not shown) [Example 225, 1-(Thiazol-2-yl)ethyl 2-(4-ethoxyphenyl)thiazole-4-carboxylate] | – | inhibition at 50 µM [2, 6]: 68% |
| CCOC(=O)c1cc(-c2ccc(OCC)cc2)no1 [AMU-4-245, reference compound] | – | IC50 [1, 3]: ≥ 200 µM |
| CCOC(=O)c1nc(-c2ccc(OCC)cc2)sc1Br [Example 164, Ethyl 5-bromo-2-(4-ethoxyphenyl)thiazole-4-carboxylate] | 25 | – |
| CC(C)OC(=O)c1ccc(-c2cccc(C(=O)OC(C)C)n2)cc1 [Example 97] | 20 | – |
| CCOc1ccc(-c2nc(C(=O)OCc3cnco3)cs2)cc1 [Example 220] | – | IC50 [1, 7]: 30 µM |
| CCOC(=O)c1cccc(-c2ccc(C(C)OC)cc2)n1 (stereo not shown) [Example 45] | 10 | – |
| C#CCOC(=O)c1csc(-c2ccc(OCC)cc2)n1 [Example 149, Prop-2-yn-1-yl 2-(4-ethoxyphenyl)thiazole-4-carboxylate] | 3 | – |
| COc1cc(C(=O)OC(C)C)nc(-c2ccc(C(C)OC)cc2)c1 (stereo not shown) [Example 62] | 2 | – |
| CCCCCCOC(=O)c1csc(-c2ccc(OCC)cc2)n1 [Example 156, Hexyl 2-(4-ethoxyphenyl)thiazole-4-carboxylate] | 15 | – |
| CC(C)OC(=O)c1cccc(OCCc2ccccc2)n1 [Example 91] | 50 | – |
| CCOC(=O)c1cn(-c2ccc(OCC)cc2)cn1 [AM-30, reference compound] | – | IC50 [1, 3]: ≥ 200 µM |
| COCOc1ccc(-c2cccc(C(=O)OC(C)C)n2)cc1 [Example 13] | 8 | – |
| COc1ccc(-c2nc(C(=O)OCc3ccsc3)cs2)cc1 [Example 231, Thiophen-3-ylmethyl 2-(4-methoxyphenyl)thiazole-4-carboxylate] | – | IC50 [1, 7]: 30 µM |
| CCOC(=O)c1cnc(-c2ccc(OCC)cc2)s1 [AM-52, reference compound] | – | IC50 [1, 3]: > 200 µM |
| CC(C)Oc1ccc(-c2nc(C(=O)OCc3ccsc3)cs2)cc1 [Example 233, Thiophen-3-ylmethyl 2-(4-Isopropoxyphenyl)thiazole-4-carboxylate] | – | IC50 [1, 7]: 10 µM |

More lines, main results first:

| IC50 [1, 5] [µM] | SMILES | also measured |
| --- | --- | --- |
| 25 | CCOc1ccc(-c2nc(C(=O)OC(C)(C)C)c(C(=O)C3CC3)s2)cc1 [Example 174, tert-Butyl 5-(cyclopropanecarbonyl)-2-(4-ethoxyphenyl)thiazole-4-carboxylate] | – |
| 12 | CCOc1ccc(-c2nc(C(=O)OC(C)(C)C)c(C(=O)C(C)C)s2)cc1 [Example 173, tert-Butyl 2-(4-ethoxyphenyl)-5-isobutyrylthiazole-4-carboxylate] | – |
| 5 | CCOc1ccc(-c2nc(C(=O)OC(C)(C)C)c(C(C)=O)s2)cc1 [Example 171, tert-Butyl 5-acetyl-2-(4-ethoxyphenyl)thiazole-4-carboxylate] | – |
| 10 | CCOc1ccc(-c2nc(C(=O)OC(C)(C)C)c(N3CCCCC3)s2)cc1 [Example 167, tert-Butyl 2-(4-ethoxyphenyl)-5-(piperidin-1-yl)thiazole-4-carboxylate] | – |
| 20 | CCOC(=O)c1nc(-c2ccc(OCC)cc2)sc1C(C)=O [Example 172, Ethyl 5-acetyl-2-(4-ethoxyphenyl)thiazole-4-carboxylate] | – |
